± gives the expanded uncertainty stated by the source.
Details: Liquid

FCC(F)(F)F [1,1,1,2-tetrafluoroethane]
vapor or sublimation pressure (282.55 K): 404 ± 2.7 kPa | vapor or sublimation pressure (293.32 K): 572.6 ± 3.7 kPa | vapor or sublimation pressure (303.24 K): 773.3 ± 5 kPa | vapor or sublimation pressure (312.66 K): 1002.2 ± 6.5 kPa | vapor or sublimation pressure (322.82 K): 1304.9 ± 8.3 kPa
